Values joined by “and” are separate entries in the source; they are usually repeats but may differ in a detail not shown here. Equal entries are not always repeated.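 Exposure lasted 48 hours, with cells grown in 96-well plates and compounds tested at five concentrations. Abbreviation: GI50, concentration required for 50% inhibition of growth. TGI marks complete inhibition of growth.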
Assays:
Assay in all cases: inhibition of tumour cell growth, NCI panel, 48 h
[1] = system: HOP-92 NSCLC
[2] = system: HCT-15 colon
[3] = system: SF-295 CNS
[4] = system: HL-60(TB) leukemia
[5] = system: SNB-75 CNS
[6] = system: DU-145 prostate
[7] = system: MDA-MB-231 breast
[8] = system: UACC-257 melanoma
[9] = system: NCI/ADR-RES ovarian
[10] = system: T-47D breast

SMILES | GI50 [1] [nM] | TGI [1] [µM] | GI50 [2] [nM] | TGI [2] [µM] | GI50 [3] [nM] | TGI [3] | GI50 [4] [nM] | TGI [4] | GI50 [5] [nM] | TGI [5] | GI50 [6] [nM] | TGI [6] | GI50 [7] [nM] | TGI [7] [µM] | GI50 [8] [nM] | TGI [8] | GI50 [9] | TGI [9] | GI50 [10] | TGI [10]
C[C@@H]1OCC2(CCN(c3cnc(Sc4ccnc(N)c4Cl)c(N)n3)CC2)[C@@H]1N | 46.9 | 0.788 | > 100000 | > 100 | > 100000 | > 100 µM | > 100000 | > 100 µM | 15100 | > 100 µM | > 67800 | > 100 µM | > 100000 | > 100 | > 100000 | > 100 µM | > 100 µM | > 100 µM | 46300 nM | > 100 µM
COC1=C(OC)[C@]2(OC)c3c(O)c(OC)c4c(c3O[C@@]23O[C@@H](c2ccccc2)CC=C3C1=O)[C@@H](O)C[C@H](c1ccccc1)O4 | 244 | 0.641 | 157 | 0.34 | 1780 | 3.57 µM | 177 | 0.627 µM | 693 | 1.98 µM | 2230 | 4.56 µM | 234 | 0.911 | 1010 | 2.36 µM | 0.688 µM | 3.39 µM | 224 nM | 0.621 µM
Nc1c2ccccc2nc2ccccc12 (tested in a mixture with another compound) | 1840 | 6.98 | 2030 | 10.4 | 2100 | 10.5 µM | 3240 | 8.04 µM | 3180 | 8.44 µM | 2380 | 6.51 µM | 1500 | 5.84 | 1870 | 4.48 µM | 1.74 µM | 6 µM | 1870 nM | 5.98 µM
Nc1nc(-c2cccs2)cs1 |  | > 100 |  | > 100 |  | > 100 µM |  | > 100 µM |  | > 100 µM |  | > 100 µM |  | > 100 |  | > 100 µM |  | > 100 µM |  | > 100 µM
CC(=O)[O][Bi]([c]1ccccc1)[c]1ccccc1 | 1330 | 4.28 | 1920 | 4.06 | 17500 | 33.4 µM | 3540 | 23.5 µM | 16400 | 30.2 µM | 21300 | 50.2 µM | 14400 | 28.4 | 11200 | 23.6 µM | 19.1 µM | 37.5 µM | 5610 nM | > 100 µM
Cc1cc2nc(C(Cl)Cl)nc(-c3ccccc3)n2n1 | 2430 | 12.2 | 4110 | 20.8 | 3480 | 15.9 µM | 2380 | 6.35 µM | 1750 | 12.9 µM | 1950 | 5.41 µM | 3440 | 20.9 | 7350 | 34.2 µM | 3.78 µM | 29.9 µM | 4000 nM | 89.1 µM
CCN1CCN(c2ccc(Nc3ncc4ccc5ncn(C(C)C)c5c4n3)nc2)CC1 | 155 | 0.474 | 63.6 | 1.16 | 224 | 0.794 µM | < 23.8 | 0.586 µM | 140 | 0.415 µM | 126 | 4.3 µM | 111 | 0.727 | 283 | 27.1 µM | 0.292 µM | 13.9 µM | 199 nM | 7.3 µM
Cn1c(=N)n[n+]([O-])c2ccccc21 |  | 90.9 | 4720 | 10.8 |  | 4.49 µM and 15.2 µM |  | 10.1 µM and 10.4 µM |  | 3.56 µM and 8.45 µM |  | 4.11 µM and 4.12 µM |  | > 100 |  | 5.51 µM and 3.92 µM | 4.44 µM and 9.2 µM | > 100 µM and 42 µM | 4340 nM and 9120 nM | 21.5 µM and 43.2 µM
CCN(CC)CC[n+]1cc2cc(OC)c(OC)cc2c2ccc3cc4c(cc3c21)OCO4 | 1370 | 3.88 | 1680 | 4.51 | 429 | 2.36 µM | 1420 | 4.69 µM | 640 | 2.56 µM | 337 | 1.96 µM | 709 | 2.71 | 1450 | 3.36 µM | 3.72 µM | 22 µM | 378 nM | 12.1 µM
Cc1nn(C)c2cc(N(C)c3ccnc(Nc4cccc(S(N)(=O)=O)c4)n3)ccc12 | 4390 | > 25 | 9020 | > 25 | 10100 | > 25 µM | 5760 | 21.5 µM | 5890 | > 23.7 µM | 7180 | > 25 µM | 8030 | > 25 | 6540 | > 25 µM | 7.85 µM | > 25 µM | > 7800 nM | > 21.1 µM
COc1cc(N2CCC(N3CCN(C)CC3)CC2)ccc1Nc1ncc(Cl)c(Nc2ccccc2S(=O)(=O)C(C)C)n1 | 47.6 | 0.433 | 1940 | 11.5 | 1800 | 10.3 µM | 327 | 1.4 µM | 919 | 2.17 µM | 1460 | 7.88 µM | 705 | 2.43 | 1230 | 2.58 µM | 1.29 µM | 5.75 µM | 1590 nM | 3.55 µM
Nc1ccc(-c2ccc(-c3nc4cc(Cl)c(Cl)cc4[nH]3)cc2)cc1 | 23000 | 65 | 406 | > 100 | 419 |  | 8220 | > 100 µM | 16300 | 55.9 µM | 2360 | 98.4 µM | 3340 | > 49.6 | 1380 | > 60.7 µM | 3.6 µM | > 79.2 µM | 275 nM | > 100 µM
C=C(CN(C)C)C(=O)c1ccc(Oc2ccccc2)cc1 |  | > 25.5 |  | 11 |  | 38.3 µM |  | 3.46 µM |  | 35.5 µM |  | 27.6 µM |  | 15.5 |  | 17.7 µM |  | > 100 µM |  | 13.7 µM
N#CSc1ccc(S(N)(=O)=O)cc1 |  | > 100 |  | > 100 |  | > 100 µM |  | 37.1 µM |  | > 100 µM |  | > 100 µM |  | > 100 |  | > 100 µM |  | > 100 µM |  | > 100 µM

Reference: PubChem BioAssay (NCI)
